Reference: ChEMBL document CHEMBL5150060 (J Med Chem, 2022)
The source made the active and inactive calls. No cut-off for these calls is given here.

Tests used:
[1] = Stability of compound in DMEM/DMSO/acetonitrile at pH 7.4 measured after 72 hrs by HPLC analysis; type: physicochemical; settings: read-out: Stability
[2] = biological target: T1, Histone deacetylase 8 (Homo sapiens) (UniProt Q9BY41); assay: Inhibition of HDAC8 in human Jurkat T cells assessed as upregulation of PRDM1 expression at 10 uM after 6 to 12 hrs by RT-qPCR analysis; type: cell-based; settings: time 6-12 hrs
T1 sequence (whole entry): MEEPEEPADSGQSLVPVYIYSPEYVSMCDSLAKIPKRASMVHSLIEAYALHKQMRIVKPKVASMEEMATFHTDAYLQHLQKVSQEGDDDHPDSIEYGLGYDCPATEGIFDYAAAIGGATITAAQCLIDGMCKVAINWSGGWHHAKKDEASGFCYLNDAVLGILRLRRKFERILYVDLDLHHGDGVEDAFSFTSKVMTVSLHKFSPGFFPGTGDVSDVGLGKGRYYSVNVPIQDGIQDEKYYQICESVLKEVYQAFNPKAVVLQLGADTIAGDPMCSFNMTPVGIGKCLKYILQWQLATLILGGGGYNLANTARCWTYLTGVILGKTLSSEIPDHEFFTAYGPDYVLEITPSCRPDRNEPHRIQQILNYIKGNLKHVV

[3] = biological target: T1, Histone deacetylase 8 (Homo sapiens); assay: Inhibition of HDAC8 in human Jurkat T cells assessed as upregulation of […] expression at 10 uM after 6 to 12 hrs by RT-qPCR analysis; type: cell-based; settings: time 6-12 hrs
[4] = biological target: Histone deacetylase 3 (Homo sapiens, UniProt O15379); assay: Inhibition of recombinant human HDAC3 using p53 (Ac-RHKK(Acetyl)-AMC) as substrate preincubated for 5 mins followed by substrate addition and measured after 30 mins by fluorescence based analysis
[5] = biological target: T1, Histone deacetylase 8 (Homo sapiens); assay: Inhibition of HDAC8 in human Jurkat T cells assessed as upregulation of IL-7R expression after 6 hrs by RT-qPCR analysis; type: cell-based; settings: dose 0.1-10 µM, DDE = dose-dependent effect
[6] = biological target: T1, Histone deacetylase 8 (Homo sapiens); assay: Inhibition of HDAC8 in human Jurkat T cells assessed as upregulation of GATA3 expression after 6 hrs by RT-qPCR analysis; type: cell-based; settings: dose 0.1-10 µM, DDE = dose-dependent effect
[7] = biological target: T2, Protein deacetylase HDAC6 (Mus musculus) (UniProt Q9Z2V5); assay: Inhibition of HDAC6 in mouse spleen CD4+ T- lymphocytes assessed as increase in SMC3 acetylation level at 5 to 10 uM after 6 hrs by Western blot analysis; type: cell-based; settings: CD4+ve Th, dose 5-10 µM
T2 sequence (whole entry): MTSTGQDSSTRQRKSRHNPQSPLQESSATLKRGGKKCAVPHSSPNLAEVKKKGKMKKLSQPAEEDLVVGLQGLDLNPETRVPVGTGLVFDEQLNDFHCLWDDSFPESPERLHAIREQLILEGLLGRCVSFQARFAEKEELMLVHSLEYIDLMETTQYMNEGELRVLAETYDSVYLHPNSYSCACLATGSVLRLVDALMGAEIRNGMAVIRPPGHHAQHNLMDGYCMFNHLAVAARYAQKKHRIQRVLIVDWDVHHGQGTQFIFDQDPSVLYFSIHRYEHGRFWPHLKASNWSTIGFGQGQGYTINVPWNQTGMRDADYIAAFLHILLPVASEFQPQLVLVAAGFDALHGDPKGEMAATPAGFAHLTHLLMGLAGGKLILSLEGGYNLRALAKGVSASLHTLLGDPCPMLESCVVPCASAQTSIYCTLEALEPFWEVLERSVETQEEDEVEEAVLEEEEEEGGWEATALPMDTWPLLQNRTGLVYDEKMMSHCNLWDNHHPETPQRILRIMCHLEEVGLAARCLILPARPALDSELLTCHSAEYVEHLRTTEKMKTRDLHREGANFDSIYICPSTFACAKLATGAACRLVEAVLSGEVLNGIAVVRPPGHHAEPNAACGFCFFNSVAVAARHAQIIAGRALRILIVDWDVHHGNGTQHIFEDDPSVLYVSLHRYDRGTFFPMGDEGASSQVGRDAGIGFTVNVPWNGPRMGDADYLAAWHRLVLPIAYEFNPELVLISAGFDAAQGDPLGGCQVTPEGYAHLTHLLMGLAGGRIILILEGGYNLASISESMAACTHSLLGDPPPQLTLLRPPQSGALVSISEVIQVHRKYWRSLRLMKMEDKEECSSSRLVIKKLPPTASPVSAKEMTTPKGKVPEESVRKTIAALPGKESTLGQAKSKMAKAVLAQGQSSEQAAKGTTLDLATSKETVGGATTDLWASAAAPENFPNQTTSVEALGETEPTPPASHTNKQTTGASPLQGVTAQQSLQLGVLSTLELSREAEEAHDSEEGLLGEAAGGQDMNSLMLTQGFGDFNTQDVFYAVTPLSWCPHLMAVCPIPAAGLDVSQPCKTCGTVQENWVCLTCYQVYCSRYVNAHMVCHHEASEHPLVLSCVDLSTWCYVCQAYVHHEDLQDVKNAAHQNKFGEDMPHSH

[8] = Toxicity in C57BL/6 mouse assessed as change in spleen weight at 5 to 10 mg/kg, ip administered 5 days per week for 2 weeks by H and E staining based assay; type: organism-based; settings: in vivo, 336 h, dose 5-10 mg/kg
[9] = biological target: T1, Histone deacetylase 8 (Homo sapiens); assay: Inhibition of HDAC8 in human Jurkat T cells assessed as upregulation of BCL6 expression at 10 uM after 6 to 12 hrs by RT-qPCR analysis; type: cell-based; settings: time 6-12 hrs
[10] = Toxicity in C57BL/6 mouse assessed as change in lung weight at 5 to 10 mg/kg, ip administered 5 days per week for 2 weeks by H and E staining based assay; type: organism-based; settings: in vivo, 336 h, dose 5-10 mg/kg
[11] = biological target: T1, Histone deacetylase 8 (Homo sapiens); assay: Inhibition of HDAC8 in human Jurkat T cells assessed as upregulation of KLRG expression at 10 uM after 6 to 12 hrs by RT-qPCR analysis; type: cell-based; settings: time 6-12 hrs
[12] = Toxicity in C57BL/6 mouse assessed as change in heart weight at 5 to 10 mg/kg, ip administered 5 days per week for 2 weeks by H and E staining based assay; type: organism-based; settings: in vivo, 336 h, dose 5-10 mg/kg
[13] = biological target: T1, Histone deacetylase 8 (Homo sapiens); assay: Inhibition of HDAC8 in human Jurkat T cells assessed as upregulation of IL10 expression at 10 uM after 6 to 12 hrs by RT-qPCR analysis; type: cell-based; settings: time 6-12 hrs
[14] = biological target: T2, Protein deacetylase HDAC6 (Mus musculus); assay: Inhibition of HDAC6 in mouse spleen CD4+ T- lymphocytes assessed as increase in H3K27 acetylation level at 5 to 10 uM after 6 hrs by Western blot analysis; type: cell-based; settings: CD4+ve Th, dose 5-10 µM
[15] = biological target: Histone deacetylase 1 (Homo sapiens, UniProt Q13547); assay: Inhibition of recombinant human HDAC1 using p53 (Ac-RHKK(Acetyl)-AMC) as substrate preincubated for 5 mins followed by substrate addition and measured after 90 mins by fluorescence based analysis
[16] = biological target: T1, Histone deacetylase 8 (Homo sapiens); assay: Reversible binding affinity to recombinant human HDAC8 incubated for 30 mins by jump dilution method
[17] = biological target: T1, Histone deacetylase 8 (Homo sapiens); assay: Inhibition of HDAC8 in human Jurkat T cells assessed as upregulation of EOMES expression at 10 uM after 6 to 12 hrs by RT-qPCR analysis; type: cell-based; settings: time 6-12 hrs
[18] = biological target: T1, Histone deacetylase 8 (Homo sapiens); assay: Inhibition of HDAC8 in human Jurkat T cells assessed as upregulation of IL5 expression at 10 uM after 6 to 12 hrs by RT-qPCR analysis; type: cell-based; settings: time 6-12 hrs
[19] = Stability of compound in DMEM/DMSO/acetonitrile at pH 7.4 measured after 24 hrs by HPLC analysis; type: physicochemical; settings: read-out: Stability

Histone deacetylase 3, sequence (O15379 whole entry): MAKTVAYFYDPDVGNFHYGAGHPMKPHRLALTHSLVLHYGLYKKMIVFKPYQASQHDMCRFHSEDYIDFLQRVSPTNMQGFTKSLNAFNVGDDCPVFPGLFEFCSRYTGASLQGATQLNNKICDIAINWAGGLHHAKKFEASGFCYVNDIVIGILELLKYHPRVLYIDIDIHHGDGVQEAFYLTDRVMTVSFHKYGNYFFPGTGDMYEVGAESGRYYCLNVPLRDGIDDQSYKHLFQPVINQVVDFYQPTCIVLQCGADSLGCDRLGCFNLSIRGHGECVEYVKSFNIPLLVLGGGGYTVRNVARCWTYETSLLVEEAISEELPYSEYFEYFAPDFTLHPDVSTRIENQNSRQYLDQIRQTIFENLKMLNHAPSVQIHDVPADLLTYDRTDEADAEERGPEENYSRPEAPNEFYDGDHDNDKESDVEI
Histone deacetylase 1, sequence (Q13547 whole entry): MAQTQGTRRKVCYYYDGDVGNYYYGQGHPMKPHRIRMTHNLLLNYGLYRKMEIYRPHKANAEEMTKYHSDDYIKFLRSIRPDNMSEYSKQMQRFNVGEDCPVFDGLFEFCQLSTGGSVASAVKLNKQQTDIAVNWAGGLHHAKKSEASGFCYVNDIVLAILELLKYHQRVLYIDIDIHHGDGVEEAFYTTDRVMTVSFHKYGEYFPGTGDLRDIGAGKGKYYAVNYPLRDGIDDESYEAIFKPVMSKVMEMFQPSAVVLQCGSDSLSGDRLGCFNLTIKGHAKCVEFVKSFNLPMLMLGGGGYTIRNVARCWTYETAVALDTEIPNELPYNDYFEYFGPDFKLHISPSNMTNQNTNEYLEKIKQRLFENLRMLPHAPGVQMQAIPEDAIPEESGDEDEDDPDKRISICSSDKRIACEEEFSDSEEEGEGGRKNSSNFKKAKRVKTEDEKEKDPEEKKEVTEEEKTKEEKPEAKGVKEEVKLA

remaining at 72 h [1]: 103%
inhibition [2]: Active
inhibition [3]: Active
IC50 [4]: > 20000 nM
inhibition [5]: Dde
inhibition [6]: Dde
inhibition [7]: Active
inhibition [9]: Active
inhibition [11]: Active
inhibition [13]: Active
inhibition [14]: Active
IC50 [15]: 1800 nM
Activity [16]: Active
inhibition [17]: Active
inhibition [18]: Active
remaining at 24 h [19]: 105%
SMILES: CCCCCCNNC(=O)c1ccc(-c2ccc(CNC(C)=O)cc2)cc1
Activity [8]: Non-Toxic
Activity [10]: Non-Toxic
Activity [12]: Non-Toxic
